Reference: patent US12329159B2, “Systems and methods for use of chlorine dioxide in cultivation and post-harvest applications” (Prokure Solutions, LLC, priority 2018, dated 2025)
Where “and” joins values, the source holds several entries; their conditions need not be identical. Identical values can stand only once.

Columns and labels:
Cannabis plants [1] = assay: Effects of chlorine dioxide on vegetative growth (grow tent, leaf count); assay type: in vivo; conditions: about 3 mg of chlorine dioxide per hour, 10 days; for Leaf Count # of new leaves / Leaf Count Final: Experimental tent, 240 cubic feet
Procedure: Experiments were performed to determine the effects of using a continuous release dose of about 3 mg of chlorine dioxide per hour on the vegetative growth of Cannabis plants.
Cannabis plants were placed in a grow tent and grown under artificial lighting for 10 days. Leaf counts were performed prior to placing in the tent and again after 10 days. Two separate grow tents were used, one for the experiment and one as the control. The total leaf count was compared between the experimental and control plants. Temperature and relative humidity measurements were taken 3 times per day to ensure both tents maintained the same environmental conditions.
A pouch was hung from the top of the inside of the experimental tent. The pouch dispensed approximately 3 mg of chlorine dioxide per hour for the duration of the trial (10 days). Within the experimental tent the Cannabis plants were exposed to about 720 mg of gaseous chlorine dioxide over the 10-day period.
Three Cannabis plants were placed into each tent. Two of the plants were of a Cannabis indica variety, and one plant was a Cannabis sativa variety. The photoperiod used in both tents was 20 hours with lights on followed by 4 hours with lights off. All watering, nutrients, pest control, etc. were identical for all plants.

Cannabis plants [2] = assay: Toxicity responses of Cannabis plants to foliar applications of chlorine dioxide; assay type: in vivo; conditions: for plants with damage to floral tissue (discoloration): after the third application
Procedure: Regular and excessive rates of chlorine dioxide dissolved in water were sprayed up to five times at 2-day intervals on two varieties of Cannabis plants in both vegetative and flowering stages to determine if plant damage would result. Adverse effects were assessed based on visible discoloration or chlorosis of leaves and/or flowers. All plants were monitored for several days after the final application of chlorine dioxide.
Experiments were performed in a greenhouse with temperatures between 70° F. and 80° F. Plants were potted in soil and appeared healthy and undamaged prior to treatment. All plants received the same amount of water and nutrients as controls, delivered via soil drenching. All plants, including controls, were the same age. At the beginning of the experiments, both flowering and vegetative plants had 3 weeks of the respective growth stage remaining.
Concentrations of chlorine dioxide tested include 0, 50, 100, and 500 ppm. All chlorine dioxide solutions were prepared from 500 ppm stock solution, mixed in containers and used immediately. Each of the rates was tested in triplicate with separate plants in both stages of growth and with Cannabis indica and Cannabis sativa Cannabis plants. A common trigger sprayer bottle with the tip adjusted to a mist setting was used to apply treatments. Plants were sprayed until all leaves and stems were visibly wet. Each treatment rate was applied at 2-day intervals, and the number of applications ranged from 1 to 5 depending on the amount of damage that occurred to the plant.
Damage was assessed 2 days after an application and prior to the next application. Treated plants were assessed for damage 6 days after the 5th and final spray treatment. Observed symptoms associated with the application of chlorine dioxide were necrosis of leaf tissue appearing as lesions between and across leaf veins and at leaf margins. Early symptoms included yellowing of leaves. Some lesions had dark brown borders and/or appeared desiccated.

Cannabis plants [3] = assay: Toxicity responses of Cannabis plants to applications of gaseous chlorine dioxide; assay type: in vivo
Excerpt: Two varieties of Cannabis plants in both vegetative and flowering stages were exposed to various amounts of chlorine dioxide gas to determine if plant damage would result. Adverse effects were based on discoloration or chlorosis type damage to leaves and/or flowers. Leaves of each plant were collected prior to experiments and again 2 days post treatment for tissue analysis. Leaf samples were sent to a third-party laboratory for analysis of nutrients and total chloride (Cl^−). Tissue analysis of leaves pre- and post-treatment were compared to determine uptake of chlorine dioxide and/or its by-products. Control plants were used for visual comparison in determining plant damage. All plants were monitored for several days after application of chlorine dioxide gas. Plants were potted in soil and appeared healthy and undamaged unless otherwise noted. All plants including controls were of the same age for each growth stage. • The chlorine dioxide gas exposure was based on concentration with units of mg of chlorine dioxide per cubic foot of space.
A first trial was performed in a space of 1550 cubic feet with four healthy plants in the space, two of which were in flower at week 5 of 8, and the other two of which had one week of vegetative stage remaining. The chlorine dioxide dose was 1.9 mg chlorine dioxide per cubic foot of space (one 25 g ProKure® G Fast Release Gas packet (ProKure® Solutions, Phoenix, AZ) and 4 liters of 500 ppm chlorine dioxide solution). Contact time was 18 hours, and the room was maintained in darkness for the duration of the contact time.
A second trial was performed in a space of about 33400 cubic feet with 840 flowering plants at week eight of an eight-week cultivation cycle. All plants were healthy. […] The chlorine dioxide dose was 0.45 mg chlorine dioxide gas per cubic foot of space. Contact time was 18 hours, and the room was maintained in darkness for the first 12 hours, and grow lights came on for the last 6 hours of contact time, but the chlorine dioxide gas concentration monitoring was only performed for about 10 hours.

[4] = test system: visible mold growing on flowers; assay: Trial 3: gaseous chlorine dioxide treatment of flowering plants with visible mold; assay type: in vivo; conditions: 0.45 mg chlorine dioxide gas per cubic foot, 18 hours
Procedure: A third trial was performed in a 33400 cubic foot space with 840 flowering plants at week eight of an eight-week cultivation cycle. Most plants had visible mold growing on flowers. The chlorine dioxide dose was 0.45 mg chlorine dioxide gas per cubic foot of space. Contact time was 18 hours, the room was maintained in darkness for the first 12 hours, and grow lights came on for the last 6 hours contact time, but the chlorine dioxide gas concentration monitoring was only performed for about 10 hours.
The HVAC system for the 33400 cubic foot space that had 840 flowering plants in the last week of flower failed. Within hours the temperature and humidity increased, and visible mold growth was found on most of the flower within 24 hours. To treat the mold and potentially prevent the loss of over 100 pounds of Cannabis flower product, a dose of 0.45 mg chlorine dioxide gas per cubic foot was dispensed into the space (14× ProKure® G Fast Release Gas packets (25-gram) (ProKure® Solutions)). […] Essentially, it was never above the detection limit of the sensor (0.5 ppmv). […] An odor would be expected for this application rate, so the lack of odor provides further evidence that the concentration of chlorine dioxide remained below the odor threshold of about 0.03 to 0.1 ppmv. […]

Alternaria = assay: Spore trap testing, treated greenhouse: Alternaria; assay type: in vivo; conditions: 1.2 mg chlorine dioxide gas per hour per 4000 cubic feet
Procedure: (§1) Very low-level chlorine dioxide protection using about 3 mg chlorine dioxide gas per hour for every 4000 cubic feet (50-gram ProKure® D Extended Release Gas product (ProKure® Solutions), 2000 mg total over 4 weeks) was tested to determine the effects on reduction and prevention of fungal microorganism counts. The rate of chlorine dioxide production will vary depending on the relative humidity (RH) in the room. The above rate is for RH range of 40-60%. Each 3 mg chlorine dioxide per hour product (50-gram) unit will cover 4000 cubic feet of space. The 4000 cubic foot volume is recommended for safety reasons. This volume of space insures that the concentration of the gas remains below the OSHA regulated Permissible Exposure Limit (PEL) which is 0.1 ppmv (time weighted average (TWA) over a 8-hours per day or 40-hour work week) and the Short Term Exposure Limit (STEL) which is 0.3 ppmv (TWA over any 15-minute period) for chlorine dioxide.
(§2) All data is based on the dose described a unless otherwise noted. The spore counts per cubic meter prior to treatment are compared to spore counts per cubic meter post treatment with the treatment time indicated. […]
(§3) Treatment was performed using 1.2 mg chlorine dioxide gas per hour per 4000 cubic feet. […] The fungus could not be detected by visual inspection after about 30 days of treatment. […]

Ascospores = assay: Spore trap testing, treated greenhouse: Ascospores; assay type: in vivo; conditions: 1.2 mg chlorine dioxide gas per hour per 4000 cubic feet
Procedure: as §1, §2, §3

Aureobasidium = assay: Spore trap testing, treated greenhouse: Aureobasidium; assay type: in vivo; conditions: 1.2 mg chlorine dioxide gas per hour per 4000 cubic feet
Procedure: as §1, §2, §3

Basidiospores = assay: Spore trap testing, treated greenhouse: Basidiospores; assay type: in vivo; conditions: 1.2 mg chlorine dioxide gas per hour per 4000 cubic feet
Procedure: as §1, §2, §3

Bipolaris/Drechslera = assay: Spore trap testing, treated greenhouse: Bipolaris/Drechslera; assay type: in vivo; conditions: 1.2 mg chlorine dioxide gas per hour per 4000 cubic feet
Procedure: as §1, §2, §3

Chaetomium = assay: Spore trap testing, treated greenhouse: Chaetomium; assay type: in vivo; conditions: 1.2 mg chlorine dioxide gas per hour per 4000 cubic feet
Procedure: as §1, §2, §3

Cladosporium = assay: Spore trap testing, treated greenhouse: Cladosporium; assay type: in vivo; conditions: 1.2 mg chlorine dioxide gas per hour per 4000 cubic feet
Procedure: as §1, §2, §3

Fusarium = assay: Spore trap testing, treated greenhouse: Fusarium; assay type: in vivo; conditions: 1.2 mg chlorine dioxide gas per hour per 4000 cubic feet
Procedure: as §1, §2, §3

Oidium = assay: Spore trap testing, treated greenhouse: Oidium; assay type: in vivo; conditions: 1.2 mg chlorine dioxide gas per hour per 4000 cubic feet
Procedure: as §1, §2, §3

Penicillium/Aspergillus = assay: Spore trap testing, treated greenhouse: Penicillium/Aspergillus; assay type: in vivo; conditions: 1.2 mg chlorine dioxide gas per hour per 4000 cubic feet
Procedure: as §1, §2, §3

Smuts/Myxomycetes = assay: Spore trap testing, treated greenhouse: Smuts/Myxomycetes; assay type: in vivo; conditions: 1.2 mg chlorine dioxide gas per hour per 4000 cubic feet
Procedure: as §1, §2, §3

Torula = assay: Spore trap testing, treated greenhouse: Torula; assay type: in vivo; conditions: 1.2 mg chlorine dioxide gas per hour per 4000 cubic feet
Procedure: as §1, §2, §3

Ulocladium = assay: Spore trap testing, treated greenhouse: Ulocladium; assay type: in vivo; conditions: 1.2 mg chlorine dioxide gas per hour per 4000 cubic feet
Procedure: as §1, §2, §3

total spores = assay: Spore trap testing, treated greenhouse: Total spores; assay type: in vivo; conditions: 1.2 mg chlorine dioxide gas per hour per 4000 cubic feet
Procedure: as §1, §2, §3

[5] = test system: unidentified fungal strain having an appearance similar to powdery mildew; assay: Visual inspection of fungal infection on greenhouse mother plants; assay type: in vivo; conditions: 1.2 mg chlorine dioxide gas per hour per 4000 cubic feet, 4500 mother plants
Procedure: An experimental trial was performed in a greenhouse with approximately 1×10^6 cubic feet of space holding 4500 mother plants. All plants were potted in soil and were approximately 5-7 feet tall, depending on whether cuttings had recently been taken for clone propagation. Plants evidenced visible signs of infection with an unidentified fungal strain having an appearance similar to powdery mildew. The fungus was actively growing and covered most leaves and major stalks. The fungus was a strain that only infected the surface of the plants and was not systemic in the plants.
Treatment was performed using 1.2 mg chlorine dioxide gas per hour per 4000 cubic feet. Spore trap testing was performed pre-treatment and at seven days post-treatment. The fungus could not be detected by visual inspection after about 30 days of treatment. Treatment continued as a preventative measure, with further spore trap testing at 45 days post treatment. Spore trap data follows below in Table 5.

[6] = cited from earlier work
[7] = 500 ppm foliar spray, all plants, after the fifth application

[O][Cl+][O-] [chlorine dioxide]
Leaf Count # of new leaves (Cannabis plants [1]; Indica): 68 and 36
Leaf Count Final (Cannabis plants [1]; Indica): 92 and 61
Leaf Count # of new leaves (Cannabis plants [1]; Sativa): 52
Leaf Count Final (Cannabis plants [1]; Sativa): 83
visible sign of adverse effects (Cannabis plants [1]; 240 cubic feet tent): none of the plants showed any visible sign of adverse effects
foliar or flower tissue damage (Cannabis plants [2]; 50 ppm chlorine dioxide in water, foliar spray, five applications at 2-day intervals): No foliar or flower tissue damage was visible
plants exhibiting damage to leaves (Cannabis plants [2]; 100 ppm foliar spray, indica-type flowering plants, two days after the 4th application): Two out of the three
damage to leaves or flowers (Cannabis plants [2]; 100 ppm foliar spray, sativa-type flowering plants): None of the sativa-type flowering plants exhibited damage to leaves or flowers
visible damage to leaves (Cannabis plants [2]; 100 ppm foliar spray, vegetative plants of both varieties): exhibited visible damage to leaves following the fourth application
smell compared with control plants (Cannabis plants [2]; [7]): did not have the same smell as control plants
tissue damage (Cannabis plants [2]; [7]): exhibited tissue damage after the fifth application
leaf damage (Cannabis plants [2]; 500 ppm foliar spray, all plants, single application): exhibited leaf damage 24 to 48 hours after a single application
plants with damage to floral tissue (discoloration) (Cannabis plants [2]; 500 ppm foliar spray, indica-type plants): 2 of the 3
plants with damage to floral tissue (discoloration) (Cannabis plants [2]; 500 ppm foliar spray, sativa-type plants): 1 of the 3
assessment of the dose (Cannabis plants [3]; Trial 1, 1.9 mg chlorine dioxide per cubic foot): considered detrimental
plant death (Cannabis plants [3]; Trial 1, 1.9 mg chlorine dioxide per cubic foot, 18 hours): none of the 4 plants died
plant damage (Cannabis plants [3]; Trial 1, 1.9 mg chlorine dioxide per cubic foot, 18 hours, 24-48 hours post-treatment): all 4 plants showed damage in the form of yellowing and chlorosis
plant appearance (Cannabis plants [3]; Trial 1, 1.9 mg chlorine dioxide per cubic foot, immediately following the 18 hours of contact time): the plants still appeared healthy
plant damage (Cannabis plants [3]; Trial 2, 0.45 mg chlorine dioxide per cubic foot, 18 hours, 840 healthy flowering plants): All plants remained healthy and undamaged
visible mold on the plants after the application [4]: No mold was visible on the plants after the application
Alternaria spore Count (Alternaria; 7 Days Post-Treatment): 0 per cubic meter
Alternaria spore Count (Alternaria; 45 Days Post-Treatment): 0 per cubic meter
Ascospores Count (Ascospores; 7 Days Post-Treatment): 27 per cubic meter
Ascospores Count (Ascospores; 45 Days Post-Treatment): 0 per cubic meter
Aureobasidium spore Count (Aureobasidium; 7 Days Post-Treatment): 0 per cubic meter
Aureobasidium spore Count (Aureobasidium; 45 Days Post-Treatment): 0 per cubic meter
Basidiospores Count (Basidiospores; 7 Days Post-Treatment): 53 per cubic meter
Basidiospores Count (Basidiospores; 45 Days Post-Treatment): 0 per cubic meter
Bipolaris/Drechslera spore Count (Bipolaris/Drechslera; 7 Days Post-Treatment): 0 per cubic meter
Bipolaris/Drechslera spore Count (Bipolaris/Drechslera; 45 Days Post-Treatment): 0 per cubic meter
Chaetomium spore Count (Chaetomium; 7 Days Post-Treatment): 0 per cubic meter
Chaetomium spore Count (Chaetomium; 45 Days Post-Treatment): 0 per cubic meter
Cladosporium spore Count (Cladosporium; 7 Days Post-Treatment): 54 per cubic meter
Cladosporium spore Count (Cladosporium; 45 Days Post-Treatment): 0 per cubic meter
Fusarium spore Count (Fusarium; 7 Days Post-Treatment): 0 per cubic meter
Fusarium spore Count (Fusarium; 45 Days Post-Treatment): 0 per cubic meter
Oidium spore Count (Oidium; 7 Days Post-Treatment): 13 per cubic meter
Oidium spore Count (Oidium; 45 Days Post-Treatment): 0 per cubic meter
Penicillium/Aspergillus spore Count (Penicillium/Aspergillus; 7 Days Post-Treatment): 0 per cubic meter
Penicillium/Aspergillus spore Count (Penicillium/Aspergillus; 45 Days Post-Treatment): 0 per cubic meter
Smuts/Myxomycetes spore Count (Smuts/Myxomycetes; 7 Days Post-Treatment): 173 per cubic meter
Smuts/Myxomycetes spore Count (Smuts/Myxomycetes; 45 Days Post-Treatment): 13 per cubic meter
Torula spore Count (Torula; 7 Days Post-Treatment): 0 per cubic meter
Torula spore Count (Torula; 45 Days Post-Treatment): 0 per cubic meter
Ulocladium spore Count (Ulocladium; 7 Days Post-Treatment): 0 per cubic meter
Ulocladium spore Count (Ulocladium; 45 Days Post-Treatment): 0 per cubic meter
Total spore Count (total spores; 7 Days Post-Treatment): 320 per cubic meter
Total spore Count (total spores; 45 Days Post-Treatment): 13 per cubic meter
time of treatment after which the fungus could not be detected by visual inspection [5]: about 30 days
Short Term Exposure Limit (STEL) ([6]; TWA over any 15-minute period): 0.3 ppmv
OSHA regulated Permissible Exposure Limit (PEL) ([6]; time weighted average over 8 hours per day or 40-hour work week): 0.1 ppmv
